In US8133909B2 (Hoffmann-La Roche Inc., priority 2008, dated 2012):

molecular target: T1, human orexin-2 (hOX2) receptors (Homo sapiens, UniProt O43614); assay: Intracellular Ca2+ mobilization assay (FLIPR), antagonism of orexin-A; format: cell-based; details: CHO(dHFr-) cells stably expressing hOX2; orexin-A at EC80 as agonist; antagonist applied 25 min before; Kb=IC50/(1+[A]/EC50); read-out: Kb (μM) OX2R (human)
T1 construct: expressed in transfected cells
T1 sequence (O43614 1-444): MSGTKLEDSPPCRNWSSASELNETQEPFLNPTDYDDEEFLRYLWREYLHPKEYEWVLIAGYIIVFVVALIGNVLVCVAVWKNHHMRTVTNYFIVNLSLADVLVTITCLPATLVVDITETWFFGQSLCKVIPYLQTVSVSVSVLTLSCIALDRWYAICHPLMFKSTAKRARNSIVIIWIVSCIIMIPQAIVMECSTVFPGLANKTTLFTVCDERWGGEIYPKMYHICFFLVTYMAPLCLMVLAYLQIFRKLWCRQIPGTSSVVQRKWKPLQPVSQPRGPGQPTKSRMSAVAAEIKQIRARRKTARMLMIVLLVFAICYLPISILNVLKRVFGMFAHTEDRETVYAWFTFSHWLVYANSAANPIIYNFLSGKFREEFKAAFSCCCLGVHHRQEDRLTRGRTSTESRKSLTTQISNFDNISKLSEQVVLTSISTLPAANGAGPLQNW
Experimental: Intracellular Ca^2+ Mobilization Assay
The Chinese Hamster Ovary (dHFr—) mutant cell line stably expressing human orexin-1 (hOX1) or human orexin-2 (hOX2) receptors were maintained in Dulbecco's Modified Eagle Medium (1X) with GlutaMax™ 1, 4500 mg/L D-Glucose and Sodium Pyruvate (Catalog No. 31966-021, Invitrogen, Carlsbad, Calif.), 5% dialyzed fetal calf serum (Catalog No. 26400-044), 100 μg/ml penicillin and 100 μg/ml streptomycin. The cells were seeded at 5×10^4 cells/well in the poly-D-lysine treated, 96-well, black/clear-bottomed plates (Catalog No. BD356640, BD Biosciences, Palo Alto, Calif.). 24 h later, the cells were loaded for 1 h at 37° C. with 4 μM Flou-4 acetoxymethyl ester (Catalog No. F-14202, Molecular Probes, Eugene, Oreg.) in FLIPR buffer (1×HBSS, 20 mM HEPES, 2.5 mM Probenecid). Hanks' Balanced Salt Solution (HBSS) (10×) (catalog No. 14065-049) and HEPES (1M) (catalog No. 15630-056) were purchased from Invitrogen, Carlsbad, Calif. Probenecid (250 mM) (catalog No. P8761) was from Sigma, Buchs, Switzerland. The cells were washed five times with FLIPR buffer to remove excess dye and intracellular calcium mobilization, [Ca^2+]i were measured using a Fluorometric Imaging Plate Reader (FLIPR-96, Molecular Devices, Menlo Park, Calif.) as described previously (Malherbe et al., Mol. Pharmacol., 64, 823-832, 2003). Orexin A (catalog No. 1455, Toris Cookson Ltd, Bristol, UK) was used as agonist. Orexin A (50 mM stock solution in DMSO) was diluted in FLIPR buffer +0.1% BSA. The EC50 and EC80 values of orexin-A were measured daily from standard agonist concentration-response curves in CHO(dHFr—)—OX1R and —OX2R cell lines. All compounds were dissolved in 100% DMSO. Inhibition curves were determined by addition of 11 concentrations (0.0001-10 μM) of inhibitory compounds and using EC80 value of orexin-A as agonist (a concentration which gave 80% of max agonist response, determined daily). The antagonists were applied 25 min (incubation at 37° C.) before the application of the agonist. Responses were measured as peak increase in fluorescence minus basal, normalized to the maximal stimulatory effect induced by EC80 value of orexin-A or orexin- B. Inhibition curves were fitted according to the Hill equation: y=100/(1+(x/IC50)^nH), where nH=slope factor using Excel-fit 4 software (Microsoft). Kb values were calculated according to the following equation Kb=IC50/(1+[A]/EC50) where A is the concentration of agonist added which is very close to agonist EC80 value, and IC50 and EC50 values were derived from the antagonist inhibition and orexin-A or B agonist curves, respectively.

SMILES	Kb
COc1ccc(N(CCc2ccc(C(F)(F)F)nc2)C(=O)[C@@H](NC(=O)[C@@H](N)c2ccccc2)c2ccccc2)cc1OC [Example 4, (S)-2-((S)-2-Amino-2-phenyl-acetylamino)-N-(3,4-dimethoxy-phenyl)-2-phenyl-N-[2(6-trifluoromethyl-pyridin-3-yl)-ethyl]-acetamide]	0.0017 µM
COc1ccc(N(CCc2ccc(C(F)(F)F)nc2)C(=O)[C@@H](N)c2ccccc2)cc1OC [Example 5, (S)-2-Amino-N-(3,4-dimethoxy-phenyl)-2-phenyl-N-[2-(6-trifluoromethyl-pyridin-3-yl)-ethyl]-acetamide]	0.0005 µM
Cc1ccc(N(CCc2ccc(C(F)(F)F)nc2)C(=O)[C@@H](O)c2ccc(F)cc2)cc1C [Example 7, (S)—N-(3,4-Dimethyl-phenyl)-2-(4-fluoro-phenyl)-2-hydroxy-N-[2-(6-trifluoromethyl-pyridin-3-yl)-ethyl]-acetamide]	0.0005 µM
N[C@H](C(=O)N(CCc1ccc(C(F)(F)F)nc1)c1ccc2c(c1)CCCC2)c1ccccc1 [Example 9, (S)-2-Amino-2-phenyl-N-(5,6,7,8-tetrahydro-naphthalen-2-yl)-N-[2-(6-trifluoromethyl-pyridin-3-yl)-ethyl]-acetamide]	0.0006 µM
Cc1ccc(N(CCc2ccc(C(F)(F)F)nc2)C(=O)[C@@H](N)c2ccc(F)cc2)cc1C [Example 10, (S)-2-Amino-N-(3,4-dimethyl-phenyl)-2-(4-fluoro-phenyl)-N-[2-(6-trifluoromethyl-pyridin-3-yl)-ethyl]-acetamide]	0.0014 µM
O=C([C@@H](O)c1ccccc1)N(CCc1ccc(C(F)(F)F)nc1)c1ccc2c(c1)CCCC2 [Example 12, (S)-2-Hydroxy-2-phenyl-N-(5,6,7,8-tetrahydro-naphthalen-2-yl)-N-[2-(6-trifluoromethyl-pyridin-3-yl)-ethyl]-acetamide]	0.0015 µM
Cc1ccc(N(CCc2ccc(C(F)(F)F)nc2)C(=O)[C@@H](O)c2ccccc2)cc1 [Example 15, (S)-2-Hydroxy-2-phenyl-N-p-tolyl-N-[2-(6-trifluoromethyl-pyridin-3-yl)-ethyl]-acetamide]	0.0241 µM

More lines, now with the values ahead:

Kb	SMILES
0.0007 µM	Cc1ccc(N(CCc2ccc(C(F)(F)F)nc2)C(=O)[C@@H](N)c2ccccc2)cc1C [Example 1, (S)-2-Amino-N-(3,4-dimethyl-phenyl)-2-phenyl-N-[2-(6-trifluoromethyl-pyridin-3-yl)-ethyl]-acetamide]
0.0025 µM	Cc1ccc(N(CCc2ccc(C(F)(F)F)nc2)C(=O)[C@@H](O)c2ccccc2)cc1C [Example 2, (S)—N-(3,4-Dimethyl-phenyl)-2-hydroxy-2-phenyl-N-[2-(6-trifluoromethyl-pyridin-3-yl)-ethyl]-acetamide]
0.0159 µM	Cc1ccc(N(CCc2ccc(C(F)(F)F)nc2)C(=O)[C@H](O)c2ccccc2)cc1C [Example 3, (R)—N-(3,4-Dimethyl-phenyl)-2-hydroxy-2-phenyl-N-[2-(6-trifluoromethyl-pyridin-3-yl)-ethyl]-acetamide]
0.0263 µM	Cc1ccc(N(CCc2ccc(C(F)(F)F)nc2)C(=O)[C@@H](NC2(CN)COC2)c2ccccc2)cc1C [Example 8, (S)-2-(3-Aminomethyl-oxetan-3-ylamino)-N-(3,4-dimethyl-phenyl)-2-phenyl-N-[2-(6-trifluoromethyl-pyridin-3-yl)-ethyl]acetamide]
0.0362 µM	Cc1ccc(N(CCc2ccc(C(F)(F)F)nc2)C(=O)Cc2ccccc2)cc1C [Example 17, N-(3,4-Dimethyl-phenyl)-2-phenyl-N-[2-(6-trifluoromethyl-pyridin-3-yl)-ethyl]-acetamide]
0.0109 µM	COc1cc(N(CCc2ccc(C(F)(F)F)nc2)C(=O)[C@@H](O)c2ccccc2)ccc1C [Example 19, (S)-2-Hydroxy-N-(3-methoxy-4-methyl-phenyl)-2-phenyl-N-[2-(6-trifluoromethyl-pyridin-3-yl)-ethyl]-acetamide]
0.0916 µM	Cc1ccc(N(CCc2ccc(C(F)(F)F)nc2)C(=O)C(=O)c2ccccc2)cc1C [Example 20, N-(3,4-Dimethyl-phenyl)-2-oxo-2-phenyl-N-[2-(6-trifluoromethyl-pyridin-3-yl)-ethyl]-acetamide]
